Patent US20110045065A1, “SUBSTANCE HAVING ANTIOXIDANT, GEROPROTECTIVE AND ANTI-ISCHEMIC ACTIVITY AND METHOD FOR THE PREPARATION THEREOF” (priority 2005, published 2011)

Legend:
[1] = system: lipofuscin induced cardiolipin photoperoxidation; experiment: Inhibition of lipofuscin induced cardiolipin liposome photoperoxidation; format: biochemical, human; conditions: for Concentration of TBK-active products / Inhibition: 2 mM compound; for Inhibiting / protective effect regarding phototoxic action of lipofuscin granules: result in words
Description: Liposomes are prepared from methanolic solution of cardiolipin (initial concentration: 5 mg/ml) by evaporation of methanol and solubilization of cardiolipin in a phosphate buffer. A mixture comprising a suspension of liposomes and lipofuscin granules, isolated from tissue of a retinal pigmentary epithelium of a human eye, is subjected to irradiation with intensive blue light under constant stirring. Concentration of lipid peroxidation products (TBK-active products) is determined after 20, 40, 60 and 90 minutes. The experimental sample contained 2 mM of a solution of compound Ic, or 2 mM of a solution of mexydole.

[2] = system: external segments of photoreceptor cells; experiment: Ascorbate-induced peroxidation of external segments of photoreceptor cells; format: biochemical, pig
Source text: The external segments of photoreceptor cells are obtained from pig retinas according to standard procedure, using methods of differential centrifuging in a saccharose density gradient. […] Subsequently, the process was stopped by 15% trichloroacetic acid, and the concentration of TBK-active products has been determined. Samples being free of compound Ic were used as a control.
In these experiments a comparison of the speed of ascorbate-induced peroxidation of external segments of photoreceptor cells of pig eyes has been carried out, said comparison being determined with respect to the accumulation of TBK-active products in the presence of different compound I salts.

[3] = Antiradical activity by chemiluminescence (rate constant k7); format: physicochemical
Description: The efficiency of 3-hydroxypyridine derivatives as inhibitors of free radical reactions was determined by hemiluminescent method by means of measurement of speed constants of their reaction with ethyl-benzene k7 peroxide radicals.
The measurements of intensity of chemiluminescence (HL) have been carried out with an apparatus CNK-7, designed and made by IHF RAN USSR. A photomultiplier FAU-38 is used as an optical receiver. The fixed concentration of radicals during oxidation of […] (cumole) is controlled by an initiator being azo-bis-isobutyronitrile.
In order to increase HL emission the activator chelate Eu (europium tristenoyl triphtoroacetonate with 1,10-phenatroline) has been used that has allowed to conduct measurements at low speed values of radical initiation (W1=10^−8-10^−9 mol/I.s.) and, therefore, at small amounts of added sample. A weighed amount of samples studied was diluted in an suitable solvent (chlorobenzene or acetonitrile) and a small amount of the prepared solution (0.1-0.25 ml) was added to the reaction mixture (5-6 ml), arranged in a temperature-controlled reaction vessel of the HL-device. The change of emission intensity was recorded.

tissue of the eye = experiment: Local irritant action to tissue of the eye; format: in vivo, rabbit; conditions: six rabbits, single instillation of 1% solution, within 1 min after dropping
Description: The experimental measurements are carried out on six rabbits. All animals have been subjected to single instillation of 1% solution of compound I into the right eye and 1% solution of emoxypine into the left eye. The front section of the eye is controlled by a focal illumination method with a 20 D lens within 1 min. after dropping.

traumatic hemophthalmia = experiment: Experimental traumatic hemophthalmia: biochemical parameters in blood serum, tear liquid, anterior chamber liquid and eye tissue; format: in vivo, chinchilla rabbits
Description: Studies were carried out in 12 chinchilla rabbits having body weight 2.0-2.5 kg. A traumatic hemophthalmia was modeled by introduction of 0.5 to 0.7 ml of autoblood into a vitreous body through a puncture in a sclera on distance of 5 mm from a limbus, under a local anaesthesia. The basic group made with 6 rabbits (12 eyes), daily received a formulation prepared in accordance with the present invention parabulbarly (0.5 ml of 1% solution). A control group presented by 6 animals (12 eyes), daily received parabulbar emoxipin (2-ethyl-6-methyl-3-hydroxypiridin) in the same dosage. Treatment was carried out within 14 days after a trauma.
The materials used for biochemical examination were as follows: blood, liquid of the anterior chamber, tear liquid, tunics of eyeglobe (retina, a vitreous body). The blood was taken from the aural vein in an amount of 3 ml. Sampling of tear liquid was carried out by a microcapillary after instillation of distilled water into the conjunctival cavity. Liquid of the anterior chamber was obtained by paracentesis. The blood sampling as well as liquid of the anterior chamber and teat liquid were carried out on the 1st, 7th and 14th day of the experiment. On the 15th day of the studies, the animals were killed (pithed) by air embolism and both the eyes were enucleated. The eyes were prepared by tunic separation. Retina and vitreous body were obtained.

[4] = 1st day, anterior chamber liquid (ACL)
[5] = 7th day, anterior chamber liquid (ACL)
[6] = 14th day, anterior chamber liquid (ACL)

2,4,6-trimethyl-3-oxypyridine succinate [Compound Ic]
Concentration of TBK-active products ([1]; radiation time 0 min): 1.3 nmol/mg lipid
Inhibition ([1]; radiation time 0 min): 0%
Concentration of TBK-active products ([1]; radiation time 20 min): 2.42 nmol/mg lipid
Inhibition ([1]; radiation time 20 min): 20%
Concentration of TBK-active products ([1]; radiation time 40 min): 2.53 nmol/mg lipid
Inhibition ([1]; radiation time 40 min): 28%
Concentration of TBK-active products ([1]; radiation time 60 min): 2.85 nmol/mg lipid
Inhibition ([1]; radiation time 60 min): 40%
Concentration of TBK-active products ([1]; radiation time 90 min): 3.28 nmol/mg lipid
Inhibition ([1]; radiation time 90 min): 40%
Inhibiting / protective effect regarding phototoxic action of lipofuscin granules [1]: active inhibitor
Inhibiting / protective effect regarding phototoxic action of lipofuscin granules ([1]; listed as I): protective effect
Speed of accumulation of TBK-active products for 30 min of reacting ([2]; compound 43 mM): 0.05 nmol/mg
Inhibition ([2]; compound 43 mM, 30 min of reacting): 93.5%
Inhibition ([2]; response time 15 min, 17 mM compound, 0.5 mM ascorbic acid): 49.6%
Inhibition ([2]; response time 30 min, 17 mM compound, 0.5 mM ascorbic acid): 32.3%
Antiradical activity in comparison with mexydole ([3]; result in words): two times higher antiradical activity
k7 × 10^−4 ([3]; speed constant of reaction with ethyl-benzene peroxide radicals): 9.5 l/mol × sec
Local irritant reaction of conjunctiva, eyeglobe and cornea (tissue of the eye): do not show local irritating action on tissue of the eye
Local irritant reaction of conjunctiva, eyeglobe and cornea (tissue of the eye; listed as I): not detected
AOA (traumatic hemophthalmia; [4]): 0.4 ± 0.01 relative unit
Concentration of TBA-active products (traumatic hemophthalmia; [4]): 0.97 ± 0.18 nmol/mL
Protein concentration (traumatic hemophthalmia; [4]): 3.1 ± 1.2 mg/mL
AOA (traumatic hemophthalmia; 1st day, blood serum (BS)): 1.7 ± 0.3 relative unit
Concentration of TBA-active products (traumatic hemophthalmia; 1st day, blood serum (BS)): 1.29 ± 0.13 nmol/mL
Protein concentration (traumatic hemophthalmia; 1st day, blood serum (BS)): 90.0 ± 6.0 mg/mL
AOA (traumatic hemophthalmia; 1st day, tear liquid (TL)): 0.23 ± 0.02 relative unit
Concentration of TBA-active products (traumatic hemophthalmia; 1st day, tear liquid (TL)): 0.14 ± 0.01 nmol/mL
Protein concentration (traumatic hemophthalmia; 1st day, tear liquid (TL)): 0.32 ± 0.2 mg/mL
AOA of basic group relative to control group, average of all measured substrata (traumatic hemophthalmia; 7th day): 1.5 times
AOA (traumatic hemophthalmia; 7th day, anterior chamber liquid): 0.8±0.07 /100 mcl
AOA (traumatic hemophthalmia; [5]): 0.8 ± 0.07 relative unit
Concentration of TBA-active products (traumatic hemophthalmia; [5]): 0.8 ± 0.5 nmol/mL
Protein concentration (traumatic hemophthalmia; [5]): 4.4 ± 1.2 mg/mL
AOA (traumatic hemophthalmia; 7th day, blood serum): 2.4±0.02 /100 mcl
AOA (traumatic hemophthalmia; 7th day, blood serum (BS)): 2.4 ± 0.02 relative unit
Concentration of TBA-active products (traumatic hemophthalmia; 7th day, blood serum (BS)): 1.17 ± 0.05 nmol/mL
Protein concentration (traumatic hemophthalmia; 7th day, blood serum (BS)): 82.4 ± 1.3 mg/mL
AOA (traumatic hemophthalmia; 7th day, tear liquid): 0.24±0.02 /200 mcl
AOA (traumatic hemophthalmia; 7th day, tear liquid (TL)): 0.24 ± 0.02 relative unit
Concentration of TBA-active products (traumatic hemophthalmia; 7th day, tear liquid (TL)): 0.13 ± 0.05 nmol/mL
Protein concentration (traumatic hemophthalmia; 7th day, tear liquid (TL)): 0.7 ± 0.2 mg/mL
AOA (traumatic hemophthalmia; 14th day, anterior chamber liquid): 0.5±0.05 /100 mcl
AOA (traumatic hemophthalmia; [6]): 0.5 ± 0.05 relative unit
Concentration of TBA-active products (traumatic hemophthalmia; [6]): 0.6 ± 0.2 nmol/mL
Protein concentration (traumatic hemophthalmia; [6]): 4.1 ± 1.1 mg/mL
AOA (traumatic hemophthalmia; 14th day, blood serum): 1.9±0.7 /100 mcl
AOA (traumatic hemophthalmia; 14th day, blood serum (BS)): 1.9 ± 0.7 relative unit
Concentration of TBA-active products (traumatic hemophthalmia; 14th day, blood serum (BS)): 0.9 ± 0.15 nmol/mL
Protein concentration (traumatic hemophthalmia; 14th day, blood serum (BS)): 47.0 ± 3.0 mg/mL
AOA (traumatic hemophthalmia; 14th day, tear liquid): 0.08±0.02 /200 mcl
AOA (traumatic hemophthalmia; 14th day, tear liquid (TL)): 0.08 ± 0.02 relative unit
Concentration of TBA-active products (traumatic hemophthalmia; 14th day, tear liquid (TL)): 0.04 ± 0.07 nmol/mL
Protein concentration (traumatic hemophthalmia; 14th day, tear liquid (TL)): 0.6 ± 0.2 mg/mL
AOA (traumatic hemophthalmia; Retina, listed under 14th day (eyes enucleated on the 15th day)): 0.4 ± 0.07 relative unit
AOA (traumatic hemophthalmia; Vitreous body, listed under 14th day (eyes enucleated on the 15th day)): 3.5 ± 0.9 relative unit
Antioxidant activity in vivo in comparison (traumatic hemophthalmia; conclusion in words): higher antioxidant activity than emoxipin
Augmentation of AOA in basic group in comparison with the control group (traumatic hemophthalmia; eye tunics, a retina and a vitreous body): 2 times
